Measured values taken from ChEMBL document CHEMBL2412957, “Synthesis and SAR of 4-aminocyclopentapyrrolidines as orally active N-type calcium channel inhibitors for inflammatory and neuropathic pain” (Bioorg Med Chem Lett, 2013).
≈ marks a conversion by molar mass, not a printed value.

Legend:
[1] = molecular target: Voltage-gated inwardly rectifying potassium channel KCNH2 (Homo sapiens, UniProt Q12809); assay: Inhibition of dofetilide binding to human ERG
[2] = Metabolic stability in rat liver microsomes assessed as compound remaining after 30 mins; type: ADME, Microsome; details: read-out: Stability
[3] = Metabolic stability in human liver microsomes assessed as compound remaining after 30 mins; type: ADME, Microsome; details: read-out: Stability
[4] = Solubility of the compound by chemiluminescent nitrogen detection method
[5] = molecular target: Voltage-dependent N-type calcium channel subunit alpha-1B (Homo sapiens, UniProt Q00975); assay: Inhibition of N-type Cav2.2 channel (unknown origin) by FLIPR assay
Chain of Voltage-dependent N-type calcium channel subunit alpha-1B (Homo sapiens, UniProt Q00975) (Q00975 whole entry): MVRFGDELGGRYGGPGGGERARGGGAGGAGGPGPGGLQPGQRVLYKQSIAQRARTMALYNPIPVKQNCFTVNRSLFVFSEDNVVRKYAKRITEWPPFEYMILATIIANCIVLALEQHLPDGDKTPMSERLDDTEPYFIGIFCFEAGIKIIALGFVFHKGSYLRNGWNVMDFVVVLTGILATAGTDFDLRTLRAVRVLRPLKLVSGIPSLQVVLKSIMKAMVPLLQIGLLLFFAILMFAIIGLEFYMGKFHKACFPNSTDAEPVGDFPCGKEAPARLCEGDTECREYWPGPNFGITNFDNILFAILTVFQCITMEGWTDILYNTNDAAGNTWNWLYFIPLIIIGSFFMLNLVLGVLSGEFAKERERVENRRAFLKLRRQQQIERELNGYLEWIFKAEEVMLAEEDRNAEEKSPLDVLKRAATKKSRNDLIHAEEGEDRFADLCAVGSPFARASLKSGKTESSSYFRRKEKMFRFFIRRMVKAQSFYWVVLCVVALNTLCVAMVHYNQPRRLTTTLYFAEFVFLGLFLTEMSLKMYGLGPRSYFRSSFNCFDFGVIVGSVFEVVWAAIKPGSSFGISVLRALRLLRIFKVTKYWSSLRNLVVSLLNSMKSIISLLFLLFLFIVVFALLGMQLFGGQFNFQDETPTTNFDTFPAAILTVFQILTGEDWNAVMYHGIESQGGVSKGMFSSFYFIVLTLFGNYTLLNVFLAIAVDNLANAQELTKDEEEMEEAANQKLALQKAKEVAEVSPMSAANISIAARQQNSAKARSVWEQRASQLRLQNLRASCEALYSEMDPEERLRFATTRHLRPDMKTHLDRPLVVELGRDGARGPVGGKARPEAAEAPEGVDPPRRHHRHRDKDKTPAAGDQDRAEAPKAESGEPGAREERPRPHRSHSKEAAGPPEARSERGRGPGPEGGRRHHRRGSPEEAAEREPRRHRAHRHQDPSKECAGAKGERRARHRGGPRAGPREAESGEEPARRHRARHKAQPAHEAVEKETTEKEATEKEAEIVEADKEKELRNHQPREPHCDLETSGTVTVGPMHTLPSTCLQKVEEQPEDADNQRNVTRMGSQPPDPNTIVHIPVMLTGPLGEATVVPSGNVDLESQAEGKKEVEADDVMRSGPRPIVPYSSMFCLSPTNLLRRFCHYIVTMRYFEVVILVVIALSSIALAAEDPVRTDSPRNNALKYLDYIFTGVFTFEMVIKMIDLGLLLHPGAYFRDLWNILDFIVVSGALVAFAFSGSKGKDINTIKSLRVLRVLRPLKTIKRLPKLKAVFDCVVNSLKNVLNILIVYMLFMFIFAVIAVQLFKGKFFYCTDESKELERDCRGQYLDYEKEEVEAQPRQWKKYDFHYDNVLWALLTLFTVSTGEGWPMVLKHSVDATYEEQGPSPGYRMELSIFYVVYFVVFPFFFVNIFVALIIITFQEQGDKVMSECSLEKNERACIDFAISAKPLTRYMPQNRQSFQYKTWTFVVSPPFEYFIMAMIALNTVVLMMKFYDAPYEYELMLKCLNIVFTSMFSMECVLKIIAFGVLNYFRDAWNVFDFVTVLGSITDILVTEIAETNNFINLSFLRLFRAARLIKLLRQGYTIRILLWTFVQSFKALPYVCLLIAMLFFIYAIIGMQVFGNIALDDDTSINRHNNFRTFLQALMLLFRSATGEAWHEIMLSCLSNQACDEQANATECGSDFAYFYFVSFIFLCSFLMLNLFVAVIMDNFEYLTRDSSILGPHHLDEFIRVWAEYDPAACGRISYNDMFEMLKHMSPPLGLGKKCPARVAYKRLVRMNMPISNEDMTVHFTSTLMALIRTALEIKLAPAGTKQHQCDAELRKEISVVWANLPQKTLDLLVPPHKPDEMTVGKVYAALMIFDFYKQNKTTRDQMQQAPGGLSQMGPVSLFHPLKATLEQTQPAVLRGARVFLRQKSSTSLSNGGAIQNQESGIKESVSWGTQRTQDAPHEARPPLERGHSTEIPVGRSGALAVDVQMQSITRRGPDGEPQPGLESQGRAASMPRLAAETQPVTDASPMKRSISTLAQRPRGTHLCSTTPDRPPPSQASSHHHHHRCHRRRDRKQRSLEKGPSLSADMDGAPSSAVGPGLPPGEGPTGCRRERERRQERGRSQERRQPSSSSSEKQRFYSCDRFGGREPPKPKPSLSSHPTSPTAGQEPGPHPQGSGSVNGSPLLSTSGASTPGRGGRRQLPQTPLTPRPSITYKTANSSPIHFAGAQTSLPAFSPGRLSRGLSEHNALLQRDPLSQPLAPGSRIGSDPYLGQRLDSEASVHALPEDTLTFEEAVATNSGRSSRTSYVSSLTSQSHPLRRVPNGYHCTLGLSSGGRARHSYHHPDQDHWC

[6] = organism: Rattus norvegicus; assay: Analgesic activity in rat chronic constriction injury-induced neuropathic pain model; type: functional
[7] = organism: Rattus norvegicus; assay: Analgesic activity in rat monoiodoaceate-induced osteoarthritis pain model; type: functional
[8] = molecular target: T1, Voltage-dependent N-type calcium channel subunit alpha-1B (Rattus norvegicus, UniProt Q02294); assay: Inhibition of rat N-type Cav2.2 channel expressed in HEK293 cells under hyperpolarized condition by whole cell patch-clamp manual electrophysiology assay; type: cell-based
T1 sequence (Q02294 whole entry): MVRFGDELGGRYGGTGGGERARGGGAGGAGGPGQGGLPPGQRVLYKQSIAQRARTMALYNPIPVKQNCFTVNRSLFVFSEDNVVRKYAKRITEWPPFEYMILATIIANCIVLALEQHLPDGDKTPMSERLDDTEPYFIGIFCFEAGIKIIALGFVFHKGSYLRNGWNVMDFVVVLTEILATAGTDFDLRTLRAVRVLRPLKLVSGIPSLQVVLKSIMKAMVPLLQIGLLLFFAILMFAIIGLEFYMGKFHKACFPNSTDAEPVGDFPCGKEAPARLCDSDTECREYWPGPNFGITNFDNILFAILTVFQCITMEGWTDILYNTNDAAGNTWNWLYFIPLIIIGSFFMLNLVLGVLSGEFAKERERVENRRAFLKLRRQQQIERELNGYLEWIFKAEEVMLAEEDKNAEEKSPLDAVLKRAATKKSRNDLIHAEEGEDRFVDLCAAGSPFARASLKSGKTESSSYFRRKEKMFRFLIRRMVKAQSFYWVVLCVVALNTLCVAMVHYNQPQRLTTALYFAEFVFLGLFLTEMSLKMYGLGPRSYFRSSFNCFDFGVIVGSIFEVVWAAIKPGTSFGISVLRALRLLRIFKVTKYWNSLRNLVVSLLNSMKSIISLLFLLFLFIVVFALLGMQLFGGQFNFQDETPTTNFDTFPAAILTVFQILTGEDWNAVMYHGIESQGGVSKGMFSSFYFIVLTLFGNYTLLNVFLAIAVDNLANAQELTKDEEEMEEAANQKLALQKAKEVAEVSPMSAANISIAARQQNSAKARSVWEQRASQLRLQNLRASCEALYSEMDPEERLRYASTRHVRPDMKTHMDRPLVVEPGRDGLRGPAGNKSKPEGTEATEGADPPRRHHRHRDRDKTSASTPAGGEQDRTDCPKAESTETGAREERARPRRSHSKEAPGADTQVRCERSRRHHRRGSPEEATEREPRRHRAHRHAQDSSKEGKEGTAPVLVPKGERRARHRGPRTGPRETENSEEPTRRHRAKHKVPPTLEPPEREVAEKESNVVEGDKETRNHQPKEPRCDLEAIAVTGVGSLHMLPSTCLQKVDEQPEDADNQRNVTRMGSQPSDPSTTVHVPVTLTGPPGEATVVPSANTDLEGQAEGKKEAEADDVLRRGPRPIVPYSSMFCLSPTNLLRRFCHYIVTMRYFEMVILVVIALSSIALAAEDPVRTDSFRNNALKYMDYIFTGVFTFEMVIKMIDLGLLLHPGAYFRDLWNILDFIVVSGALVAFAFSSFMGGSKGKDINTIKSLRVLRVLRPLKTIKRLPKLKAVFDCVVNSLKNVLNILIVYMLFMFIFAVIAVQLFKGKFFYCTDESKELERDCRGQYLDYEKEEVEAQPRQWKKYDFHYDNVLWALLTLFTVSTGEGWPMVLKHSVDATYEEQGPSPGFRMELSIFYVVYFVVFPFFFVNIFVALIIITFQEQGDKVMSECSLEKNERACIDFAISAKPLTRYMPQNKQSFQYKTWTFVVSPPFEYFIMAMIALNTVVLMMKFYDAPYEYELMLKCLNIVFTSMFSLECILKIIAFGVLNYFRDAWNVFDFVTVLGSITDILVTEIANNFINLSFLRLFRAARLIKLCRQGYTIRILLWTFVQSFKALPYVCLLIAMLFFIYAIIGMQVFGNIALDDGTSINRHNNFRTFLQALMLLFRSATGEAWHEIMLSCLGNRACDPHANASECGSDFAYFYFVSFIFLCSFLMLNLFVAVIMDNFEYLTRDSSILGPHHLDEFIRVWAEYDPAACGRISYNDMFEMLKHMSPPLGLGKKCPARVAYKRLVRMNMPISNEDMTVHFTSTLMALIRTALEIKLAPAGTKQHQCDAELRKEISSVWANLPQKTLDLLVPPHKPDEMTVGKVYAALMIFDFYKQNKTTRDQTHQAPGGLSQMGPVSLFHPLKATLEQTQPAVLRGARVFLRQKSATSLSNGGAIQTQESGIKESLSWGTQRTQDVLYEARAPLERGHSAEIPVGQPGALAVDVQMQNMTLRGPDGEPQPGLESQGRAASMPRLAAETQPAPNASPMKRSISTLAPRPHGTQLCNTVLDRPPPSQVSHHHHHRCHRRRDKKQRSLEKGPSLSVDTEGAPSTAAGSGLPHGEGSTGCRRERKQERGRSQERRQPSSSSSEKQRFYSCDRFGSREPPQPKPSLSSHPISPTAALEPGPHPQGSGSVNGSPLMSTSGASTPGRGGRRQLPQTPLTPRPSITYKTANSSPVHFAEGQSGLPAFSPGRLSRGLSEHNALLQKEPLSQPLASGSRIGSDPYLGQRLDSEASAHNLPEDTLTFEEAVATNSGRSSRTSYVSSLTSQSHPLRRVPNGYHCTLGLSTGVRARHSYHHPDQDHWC

[9] = molecular target: T1, Voltage-dependent N-type calcium channel subunit alpha-1B; assay: Inhibition of rat N-type Cav2.2 channel expressed in HEK293 cells under depolarized condition by whole cell patch-clamp manual electrophysiology assay; type: cell-based
[10] = Oral bioavailability in rat at 5 umol/kg; type: ADME, organism-based; details: in vivo
[11] = AUC in rat at 5 umol/kg, po; type: ADME, organism-based; details: plasma
[12] = Ratio of drug level brain to plasma in rat at 3 umol/kg, ip after 30 mins; type: ADME, organism-based; details: read-out: BPR
[13] = Plasma clearance in rat at 5 umol/kg, iv and 5 umol/kg, po; type: ADME, organism-based
[14] = Half life in rat at 5 umol/kg, iv and 5 umol/kg, po; type: ADME, organism-based; details: in vivo
[15] = Volume of distribution at steady state in rat at 5 umol/kg, iv and 5 umol/kg, po; type: ADME, organism-based; details: in vivo, read-out: Vdss
[16] = (§1) Plasma clearance in rat at 5 umol/kg, iv and 30 umol/kg, po; type: ADME, organism-based; details: plasma
[17] = (§2) Oral bioavailability in rat at 30 umol/kg; type: ADME, organism-based; details: in vivo, 30 umol/kg
[18] = Volume of distribution at steady state in rat at 5 umol/kg, iv and 30 umol/kg, po; type: ADME, organism-based; details: in vivo, read-out: Vdss
[19] = Half life in rat at 5 umol/kg, iv and 30 umol/kg, po; type: ADME, organism-based; details: in vivo
[20] = (§3) AUC in rat at 30 umol/kg, po; type: ADME, organism-based, Plasma; details: plasma, 30 umol/kg
[21] = molecular target: Voltage-gated L-type calcium channel (Rattus norvegicus, UniProt P22002+Q02485+P27732); assay: Inhibition of L-type calcium channel in rat aorta ring tissue assessed as relaxation of tissue; type: tissue-based
[22] = system: Rattus norvegicus; assay: Cardiotoxicity in anesthetized rat assessed as decrease in mean arterial pressure at plasma concentration of 1.57 ug/mL; type: toxicity, organism-based
[23] = organism: Rattus norvegicus; assay: Analgesic activity in rat capsaicin secondary mechanical hyperalgesia pain model; type: functional
[24] = Ratio of drug level brain to plasma in po dosed rat after 60 mins; type: ADME, organism-based; details: read-out: BPR
[25] = system: Rattus norvegicus; assay: as §3; type: ADME, organism-based, Plasma; details: in vivo
[26] = system: Rattus norvegicus; assay: as §1; type: ADME, organism-based; details: in vivo
[27] = system: Rattus norvegicus; assay: as §2; type: ADME, organism-based; details: in vivo, at 30 µmol/kg

| SMILES | remaining at 0.5 h [2] [%] | remaining at 0.5 h [3] [%] | solubility [4] [µM] | IC50 ([5]; read-out: IC50) [µM] | IC50 ([5]; read-out: pIC50 (converted)) [µM] | also measured |
| --- | --- | --- | --- | --- | --- | --- |
| O=C(N[C@H]1CC[C@H]2CN(Cc3cccc(C(F)(F)F)c3)C[C@H]21)C(C1CCCCC1)C1CCCCC1 | 0.1 | 0.5 | < 3 | – | – | Ki [1]: 0.69 µM |
| CCN[C@@H](CC(C)(C)C)C(=O)N[C@H]1CC[C@@H]2CN(S(=O)(=O)c3ccc(C(F)(F)F)cc3)C[C@@H]21 | 89.2 | 22.8 | 20 (≈ 9.79 µg/mL) | 0.49 | 0.575 | – |
| CN[C@@H](CC(C)C)C(=O)N[C@H]1CC[C@@H]2CN(c3cccc(C(F)(F)F)c3)C[C@@H]21 | 81 | 73 | 56 (≈ 22.3 µg/mL) | – | 1.17 | – |
| CN[C@@H](CC(C)C)C(=O)N[C@H]1CC[C@@H]2CN(c3ccc(C(F)(F)F)cc3)C[C@@H]21 | > 85 | > 85 | 33 (≈ 13.1 µg/mL) | 1.24 | – | ED50 [6]: 10 mg/kg; ED50 [7]: 3 mg/kg; IC50 [8]: 4.4 µM; IC50 [9]: 1 µM; bioavailability [10]: 83%; AUC [11]: 0.799 µg·h/mL; Kp at 0.5 h [12]: 16.5; clearance [13]: 1.3 L/h/kg; half-life [14]: 15.4 h; Vd [15]: 26.5 L/kg |
| CN[C@@H](CC(C)C)C(=O)N[C@H]1CC[C@@H]2CN(c3ccc(OC(F)(F)F)cc3)C[C@@H]21 | 66 | > 85 | 31 (≈ 12.8 µg/mL) | 5.15 | – | – |
| O=C(N[C@@H]1CC[C@H]2CN(Cc3cccc(C(F)(F)F)c3)C[C@H]21)C(C1CCCCC1)C1CCCCC1 | 2.6 | 1.2 | < 3 | 1.87 | – | Ki [1]: 9.52 µM |
| CN[C@@H](CC(C)C)C(=O)N[C@@H]1CC[C@H]2CN(Cc3cccc(C(F)(F)F)c3)C[C@H]21 | 60.7 | 19.4 | 67 (≈ 27.6 µg/mL) | 1.89 | – | – |
| CC(C)C[C@H](NS(C)(=O)=O)C(=O)N[C@@H]1CC[C@H]2CN(Cc3cccc(C(F)(F)F)c3)C[C@H]21 | 42.1 | 23.6 | 80 (≈ 38 µg/mL) | 2.84 | – | – |
| CC(C)C[C@H](N)C(=O)N[C@@H]1CC[C@H]2CN(S(=O)(=O)c3cccc(C(F)(F)F)c3)C[C@H]21 | 10.3 | 45 | 44 (≈ 19.7 µg/mL) | 1.06 | – | clearance [16]: 34.1 L/h/kg; bioavailability [17]: 0%; Vd [18]: 15 L/kg; half-life [19]: 0.5 h |
| CN[C@@H](CC(C)C)C(=O)N[C@@H]1CC[C@H]2CN(S(=O)(=O)c3cccc(C(F)(F)F)c3)C[C@H]21 | 26.5 | 25.5 | 75 (≈ 34.6 µg/mL) | 0.52 | 0.631 | AUC [20]: 0.405 µg·h/mL; clearance [16]: 3.6 L/h/kg; bioavailability [17]: 10.5%; Vd [18]: 9.2 L/kg; half-life [19]: 2 h |
| CN[C@@H](CC(C)C)C(=O)N[C@@H]1CC[C@H]2CN(S(=O)(=O)c3ccc(C(F)(F)F)cc3)C[C@H]21 | 47.3 | 50.5 | 27 (≈ 12.5 µg/mL) | 0.77 | 0.851 | bioavailability [10]: 21%; AUC [11]: 0.221 µg·h/mL; clearance [13]: 2.2 L/h/kg; half-life [14]: 2.1 h; Vd [15]: 5.6 L/kg |
| CC(C)C[C@@H](C(=O)N[C@@H]1CC[C@H]2CN(S(=O)(=O)c3cccc(C(F)(F)F)c3)C[C@H]21)N(C)C | 1 | 0.1 | 79 (≈ 37.6 µg/mL) | 0.45 | – | AUC [20]: 0.035 µg·h/mL; clearance [16]: 3.4 L/h/kg; bioavailability [17]: 0.8%; Vd [18]: 5.2 L/kg; half-life [19]: 1.4 h |
| CN[C@@H](CC(C)C)C(=O)N[C@H]1CC[C@@H]2CN(S(=O)(=O)c3ccc(C(F)(F)F)cc3)C[C@@H]21 | 69.9 | 54.4 | 77 (≈ 35.5 µg/mL) | 0.75 | 0.851 | bioavailability [10]: 50%; AUC [11]: 0.422 µg·h/mL; clearance [13]: 2.8 L/h/kg; half-life [14]: 3.3 h; Vd [15]: 13.2 L/kg |
| CCC[C@H](NC)C(=O)N[C@H]1CC[C@@H]2CN(S(=O)(=O)c3ccc(C(F)(F)F)cc3)C[C@@H]21 | 83.4 | 74.6 | 97 (≈ 43.4 µg/mL) | 0.96 | – | – |
| CCCC[C@H](NC)C(=O)N[C@H]1CC[C@@H]2CN(S(=O)(=O)c3ccc(C(F)(F)F)cc3)C[C@@H]21 | 66.4 | 51.1 | 38 (≈ 17.5 µg/mL) | 0.75 | – | – |
| CC(C)(C)[C@H](N)C(=O)N[C@H]1CC[C@@H]2CN(S(=O)(=O)c3ccc(C(F)(F)F)cc3)C[C@@H]21 | 77.1 | 75.6 | 94 (≈ 42.1 µg/mL) | 1.51 | – | – |
| CC(C)(C)C[C@H](N)C(=O)N[C@H]1CC[C@@H]2CN(S(=O)(=O)c3ccc(C(F)(F)F)cc3)C[C@@H]21 | 79.4 | 41.8 | 68 (≈ 31.4 µg/mL) | 0.87 | 0.933 | – |
| CN[C@@H](CC(C)(C)C)C(=O)N[C@H]1CC[C@@H]2CN(S(=O)(=O)c3ccc(C(F)(F)F)cc3)C[C@@H]21 | 66.5 | 33.6 | 76 (≈ 36.1 µg/mL) | 0.79 | 0.832 | – |
| CN[C@@H](Cc1ccccc1)C(=O)N[C@H]1CC[C@@H]2CN(S(=O)(=O)c3ccc(C(F)(F)F)cc3)C[C@@H]21 | 26.2 | 26.8 | – | 0.86 | – | – |
| CC(C)N[C@@H](CC(C)(C)C)C(=O)N[C@H]1CC[C@@H]2CN(S(=O)(=O)c3ccc(C(F)(F)F)cc3)C[C@@H]21 | 64.3 | 79.6 | – | – | – | IC50 [21]: 2.6 µM; Activity [22]: Toxic; ED50 [6]: 32 mg/kg; ED50 [7]: 8 mg/kg; ED50 [23]: 13 mg/kg; IC50 [8]: 0.34 µM; Kp at 1 h [24]: 0.9; IC50 [9]: 0.34 µM; AUC [25]: 0.24 µg·h/mL; CL [26]: 2 L/h/kg; F [27]: 46.7%; Vd [18]: 7.1 L/kg; half-life [19]: 2.7 h |
